According to US9302991B2, “Arylamide derivatives as TTX-S blockers” (RaQualia Pharma Inc., priority 2010, dated 2016):

Each molecule was assayed against T1, human Nav1.7 channels (Homo sapiens, UniProt Q15858) (assay: FRET assay, human Nav1.7 (EFS on FDSS)). Details: CHO cells expressing human Nav1.7, read-out: IC50 against Nav1.7.
T1 construct: expressed in transfected cells; host or cells: CHO
Format: cell-based
Method in brief: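 CHO cells stably expressing the channel, loaded with CC2-DMPE (10 µM) then DiSBAC2(3) (15 µM) plus VABSC-1, in HEPES-buffered saline pH 7.4 at room temperature. Electrical field stimulation on FDSS; FRET ratio at 440 nm fitted for IC50.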

T1 sequence (Q15858 whole entry): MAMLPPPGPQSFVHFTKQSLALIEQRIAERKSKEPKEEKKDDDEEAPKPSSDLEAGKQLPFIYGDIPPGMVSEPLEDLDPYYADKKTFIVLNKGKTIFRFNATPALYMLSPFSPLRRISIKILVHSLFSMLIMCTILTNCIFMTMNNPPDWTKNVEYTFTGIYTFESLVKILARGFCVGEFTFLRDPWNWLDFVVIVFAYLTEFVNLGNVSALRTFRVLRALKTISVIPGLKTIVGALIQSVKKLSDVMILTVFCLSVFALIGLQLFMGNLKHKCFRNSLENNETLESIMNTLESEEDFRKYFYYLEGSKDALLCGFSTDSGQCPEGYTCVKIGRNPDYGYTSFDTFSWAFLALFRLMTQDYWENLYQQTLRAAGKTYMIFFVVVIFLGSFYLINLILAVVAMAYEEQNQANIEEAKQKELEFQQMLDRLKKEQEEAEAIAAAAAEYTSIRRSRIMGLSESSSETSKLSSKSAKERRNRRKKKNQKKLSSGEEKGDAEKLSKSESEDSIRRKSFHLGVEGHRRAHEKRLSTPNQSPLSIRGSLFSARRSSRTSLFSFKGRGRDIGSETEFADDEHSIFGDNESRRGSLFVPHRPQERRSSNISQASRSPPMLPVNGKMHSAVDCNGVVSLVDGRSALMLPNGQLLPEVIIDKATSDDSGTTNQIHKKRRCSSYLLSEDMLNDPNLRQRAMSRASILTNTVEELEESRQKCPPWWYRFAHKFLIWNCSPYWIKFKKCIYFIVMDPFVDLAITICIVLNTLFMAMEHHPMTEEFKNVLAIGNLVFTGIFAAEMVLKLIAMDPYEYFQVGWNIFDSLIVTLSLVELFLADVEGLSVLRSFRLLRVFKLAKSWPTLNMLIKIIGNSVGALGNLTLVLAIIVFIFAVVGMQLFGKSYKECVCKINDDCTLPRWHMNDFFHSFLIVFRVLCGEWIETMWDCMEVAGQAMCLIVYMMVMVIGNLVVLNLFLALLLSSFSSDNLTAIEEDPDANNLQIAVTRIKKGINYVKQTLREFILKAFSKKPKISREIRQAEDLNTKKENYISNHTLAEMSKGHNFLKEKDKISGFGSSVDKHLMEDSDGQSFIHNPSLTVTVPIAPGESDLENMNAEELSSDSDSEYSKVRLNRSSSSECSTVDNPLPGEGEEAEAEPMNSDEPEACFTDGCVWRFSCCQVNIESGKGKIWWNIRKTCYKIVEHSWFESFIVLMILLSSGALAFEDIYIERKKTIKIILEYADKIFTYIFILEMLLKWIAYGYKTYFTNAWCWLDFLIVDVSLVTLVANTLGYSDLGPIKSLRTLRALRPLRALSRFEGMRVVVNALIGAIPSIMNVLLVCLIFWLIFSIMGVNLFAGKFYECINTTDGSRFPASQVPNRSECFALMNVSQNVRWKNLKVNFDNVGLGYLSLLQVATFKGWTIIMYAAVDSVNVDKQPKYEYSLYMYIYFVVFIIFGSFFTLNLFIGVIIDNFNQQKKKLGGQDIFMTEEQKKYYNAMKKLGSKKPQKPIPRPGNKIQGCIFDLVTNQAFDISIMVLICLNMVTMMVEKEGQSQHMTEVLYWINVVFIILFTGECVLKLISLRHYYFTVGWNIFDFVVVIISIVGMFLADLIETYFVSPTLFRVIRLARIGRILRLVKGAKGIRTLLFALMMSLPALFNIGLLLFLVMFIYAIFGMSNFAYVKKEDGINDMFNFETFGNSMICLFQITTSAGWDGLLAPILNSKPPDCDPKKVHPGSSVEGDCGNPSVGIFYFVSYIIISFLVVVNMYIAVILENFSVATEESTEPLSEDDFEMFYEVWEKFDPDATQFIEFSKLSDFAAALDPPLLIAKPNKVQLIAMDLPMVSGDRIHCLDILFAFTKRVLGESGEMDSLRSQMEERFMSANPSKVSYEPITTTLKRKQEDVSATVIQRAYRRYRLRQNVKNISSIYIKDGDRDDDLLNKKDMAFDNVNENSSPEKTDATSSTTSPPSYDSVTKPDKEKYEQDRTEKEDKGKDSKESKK

Compound	IC50 [µM]
Cc1cc(OCC(F)(F)F)ncc1CNC(=O)c1ccnc(NC(=O)C2CC2)n1 [Example 403, 2-(cyclopropanecarboxamido)-N-((4-methyl-6-(2,2,2-trifluoroethoxy)pyridin-3-yl)methyl)pyrimidine-4-carboxamide]	< 1
O=C(NCc1cccc(C(F)(F)F)c1)c1ccnc(NC(=O)C2CC2)n1 [Example 404, 2-(cyclopropanecarboxamido)-N-(3-(trifluoromethyl)benzyl)pyrimidine-4-carboxamide]	< 1
Cc1nc(OCC(F)(F)F)ccc1CNC(=O)c1ccnc(NC(=O)C2CC2)n1 [Example 407, 2-(cyclopropanecarboxamido)-N-((2-methyl-6-(2,2,2-trifluoroethoxy)pyridin-3-yl)methyl)pyrimidine-4-carboxamide]	< 1
CC(C)C(=O)Nc1nccc(C(=O)NCc2cnc(OCC(F)(F)F)c(Cl)c2)n1 [Example 412, N-((5-chloro-6-(2,2,2-trifluoroethoxy)pyridin-3-yl)methyl)-2-isobutyramidopyrimidine-4-carboxamide]	< 1
COc1cc(CNC(=O)c2cc(C)nc(NC(=O)C3CC3)n2)cnc1OCC(F)(F)F [Example 442, 2-(cyclopropanecarboxamido)-N-((5-methoxy-6-(2,2,2-trifluoroethoxy)pyridin-3-yl)methyl)-6-methylpyrimidine-4-carboxamide]	< 1
COc1cc(CNC(=O)c2ccnc(NC(=O)C3CC3)n2)cnc1OCC(F)(F)F [Example 444, 2-(cyclopropanecarboxamido)-N-((5-methoxy-6-(2,2,2-trifluoroethoxy)pyridin-3-yl)methyl)pyrimidine-4-carboxamide]	< 1
Cc1cc(C(=O)NCc2ccc(OCCC(F)(F)F)nc2)cc(NC(=O)C(C)C)n1 [Example 490, 2-isobutyramido-6-methyl-N-((6-(3,3,3-trifluoropropoxy)pyridin-3-yl)methyl)isonicotinamide]	< 1
Cc1cc(C(=O)NCc2ccc(OCC(F)(F)F)nc2C)cc(NC(=O)C(C)C)n1 [Example 493, 2-isobutyramido-6-methyl-N-((2-methyl-6-(2,2,2-trifluoroethoxy)pyridin-3-yl)methyl)isonicotinamide]	< 1
CC(=O)Nc1cc(C(=O)NCc2cccc(C(F)(F)F)c2)cc(C)n1 [Example 532, 2-acetamido-6-methyl-N-(3-(trifluoromethyl)benzyl)isonicotinamide]	< 1
CCC(=O)Nc1cc(C(=O)NCc2cnc(OCC(F)F)c(Cl)c2)cc(C)n1 [Example 618, N-((5-chloro-6-(2,2-difluoroethoxy)pyridin-3-yl)methyl)-2-methyl-6-propionamidoisonicotinamide]	< 1
Cc1cc(C(=O)NCc2cnc(OCC(F)F)c(Cl)c2)cc(NC(=O)C(C)C)n1 [Example 620, N-((5-chloro-6-(2,2-difluoroethoxy)pyridin-3-yl)methyl)-2-isobutyramido-6-methylisonicotinamide]	< 1
O=C(NCc1ccc(OCC(F)(F)C(F)F)nc1)c1ccnc(NC(=O)C2CC2)c1 [Example 635, 2-(cyclopropanecarboxamido)-N-((6-(2,2,3,3-tetrafluoropropoxy)pyridin-3-yl)methyl)isonicotinamide]	< 1
O=C(NCc1ccc(OCC(F)(F)C(F)F)nc1)c1ccnc(NC(=O)C2CC2)n1 [Example 651, 2-(cyclopropanecarboxamido)-N-((6-(2,2,3,3-tetrafluoropropoxy)pyridin-3-yl)methyl)pyrimidine-4-carboxamide]	< 1
O=C(NCc1cnc(OCC(F)F)c(Cl)c1)c1ccnc(NC(=O)C2CC2)c1 [Example 705, N-((5-chloro-6-(2,2-difluoroethoxy)pyridin-3-yl)methyl)-2-(cyclopropanecarboxamido)isonicotinamide]	< 1
CC(=O)Nc1cc(C(=O)NCc2cnc(OCC(F)F)c(Cl)c2)cc(C)n1 [Example 706, 2-acetamido-N-((5-chloro-6-(2,2-difluoroethoxy)pyridin-3-yl)methyl)-6-methylisonicotinamide]	< 1
CC(=O)Nc1cc(C(=O)NCc2cnc(OCC(F)(F)F)c(-c3ccco3)c2)ccn1 [Example 770, 2-acetamido-N-((5-(furan-2-yl)-6-(2,2,2-trifluoroethoxy)pyridin-3-yl)methyl)isonicotinamide]	< 1
CC(=O)Nc1cc(C(=O)NCc2cnc(OCC(F)F)cc2C)cc(C)n1 [Example 778, 2-acetamido-N-((6-(2,2-difluoroethoxy)-4-methylpyridin-3-yl)methyl)-6-methylisonicotinamide]	< 1
COc1c(CNC(=O)c2cc(C)nc(NC(C)=O)c2)cccc1C(F)(F)F [Example 819, 2-acetamido-N-(2-methoxy-3-(trifluoromethyl)benzyl)-6-methylisonicotinamide]	< 1
COc1c(CNC(=O)c2ccnc(NC(=O)C(C)C)c2)cccc1C(F)(F)F [Example 820, 2-isobutyramido-N-(2-methoxy-3-(trifluoromethyl)benzyl)isonicotinamide]	< 1

Further lines, results first:

IC50 [µM]	Compound
< 1	Cc1nc(OCC(F)(F)F)c(F)cc1CNC(=O)c1ccnc(NC(=O)C(C)C)c1 [Example 314, N-((5-fluoro-2-methyl-6-(2,2,2-trifluoroethoxy)pyridin-3-yl)methyl)-2-isobutyramidoisonicotinamide]
< 1	CCC(=O)Nc1cc(C(=O)NCc2cc(F)c(OCC(F)(F)F)nc2OC)cc(C)n1 [Example 328, N-((5-fluoro-2-methoxy-6-(2,2,2-trifluoroethoxy)pyridin-3-yl)methyl)-2-methyl-6-propionamidoisonicotinamide]
< 1	CCOc1nc(OCC(F)(F)F)ccc1CNC(=O)c1ccnc(NC(C)=O)c1 [Example 332, 2-acetamido-N-((2-ethoxy-6-(2,2,2-trifluoroethoxy)pyridin-3-yl)methyl)isonicotinamide]
< 1	CCOc1nc(OCC(F)(F)F)ccc1CNC(=O)c1ccnc(NC(=O)CC)c1 [Example 333, N-((2-ethoxy-6-(2,2,2-trifluoroethoxy)pyridin-3-yl)methyl)-2-propionamidoisonicotinamide]
< 1	CCOc1nc(OCC(F)(F)F)ccc1CNC(=O)c1cc(C)nc(NC(=O)CC)c1 [Example 334, N-((2-ethoxy-6-(2,2,2-trifluoroethoxy)pyridin-3-yl)methyl)-2-methyl-6-propionamidoisonicotinamide]
< 1	CCOc1nc(OCC(F)(F)F)ccc1CNC(=O)c1ccnc(NC(=O)C(C)C)c1 [Example 335, N-((2-ethoxy-6-(2,2,2-trifluoroethoxy)pyridin-3-yl)methyl)-2-isobutyramidoisonicotinamide]
< 1	CCOc1nc(OCC(F)(F)F)ccc1CNC(=O)c1cc(C)nc(NC(C)=O)c1 [Example 336, 2-acetamido-N-((2-ethoxy-6-(2,2,2-trifluoroethoxy)pyridin-3-yl)methyl)-6-methylisonicotinamide]
< 1	CCCC(=O)Nc1cc(C(=O)NCc2ccc(OCC(F)(F)F)nc2OCC)ccn1 [Example 337, 2-butyramido-N-((2-ethoxy-6-(2,2,2-trifluoroethoxy)pyridin-3-yl)methyl)isonicotinamide]
< 1	CCOc1nc(OCC(F)(F)F)ccc1CNC(=O)c1cc(C)nc(NC(C)=O)n1 [Example 338, 2-acetamido-N-((2-ethoxy-6-(2,2,2-trifluoroethoxy)pyridin-3-yl)methyl)-6-methylpyrimidine-4-carboxamide]
< 1	Cc1cc(C(=O)NCc2cnc(OCC(F)(F)F)cc2C)nc(NC(=O)C(C)C)n1 [Example 353, 2-isobutyramido-6-methyl-N-((4-methyl-6-(2,2,2-trifluoroethoxy)pyridin-3-yl)methyl)pyrimidine-4-carboxamide]
< 1	Cc1cc(C(=O)NCc2cnc(OCC(F)(F)F)c(C)c2)nc(NC(=O)C2CC2)n1 [Example 365, 2-(cyclopropanecarboxamido)-6-methyl-N-((5-methyl-6-(2,2,2-trifluoroethoxy)pyridin-3-yl)methyl)pyrimidine-4-carboxamide]
< 1	Cc1cc(C(=O)NCc2cnc(OCC(F)(F)F)c(C)c2)nc(NC(=O)C(C)C)n1 [Example 366, 2-isobutyramido-6-methyl-N-((5-methyl-6-(2,2,2-trifluoroethoxy)pyridin-3-yl)methyl)pyrimidine-4-carboxamide]
< 1	CC(=O)Nc1cc(C(=O)NCc2cnc(OCC(F)(F)F)c(C)c2)ccn1 [Example 367, 2-acetamido-N-((5-methyl-6-(2,2,2-trifluoroethoxy)pyridin-3-yl)methyl)isonicotinamide]
< 1	Cc1cc(CNC(=O)c2ccnc(NC(=O)C(C)C)c2)cnc1OCC(F)(F)F [Example 370, 2-isobutyramido-N-((5-methyl-6-(2,2,2-trifluoroethoxy)pyridin-3-yl)methyl)isonicotinamide]
< 1	COc1nc(OCC(F)(F)F)ccc1CNC(=O)c1cc(C)nc(NC(=O)C(C)C)n1 [Example 374, 2-isobutyramido-N-((2-methoxy-6-(2,2,2-trifluoroethoxy)pyridin-3-yl)methyl)-6-methylpyrimidine-4-carboxamide]
< 1	Cc1cc(C(=O)NCc2cnc(OCC(F)(F)F)c(Cl)c2)nc(NC(=O)C(C)C)n1 [Example 385, N-((5-chloro-6-(2,2,2-trifluoroethoxy)pyridin-3-yl)methyl)-2-isobutyramido-6-methylpyrimidine-4-carboxamide]
< 1	CC(=O)Nc1cc(C(=O)N(C)Cc2cnc(OCC(F)(F)F)c(C)c2)cc(C)n1 [Example 394, 2-acetamido-N,6-dimethyl-N-((5-methyl-6-(2,2,2-trifluoroethoxy)pyridin-3-yl)methyl)isonicotinamide]
< 1	O=C(NCc1ccc(OCC(F)(F)F)nc1)c1ccnc(NC(=O)C2CC2)n1 [Example 397, 2-(cyclopropanecarboxamido)-N-((6-(2,2,2-trifluoroethoxy)pyridin-3-yl)methyl)pyrimidine-4-carboxamide]
